Measurements taken from patent US20220323532A1, “COMPOSITIONS COMPRISING PLANT-DERIVED EXOSOME-LIKE NANOVESICLES OR EXOSOMES AND METHODS OF USE THEREOF” (priority 2021, published 2022).
Where two headings read alike, the source gives them in different places.

Assays:
skin of human subjects [1] = test: Primary skin irritation evaluation, single 48 hour patch; assay type: in vivo; conditions: single application, patch 48 hours; 55 subjects; positive control
Protocol: Patches remain in place for 48 hours. […] Trained skin grading laboratory personnel removed the patch and evaluated the test sites.
Whenever feasible, the same individual does the scoring of all the subjects throughout the study and is blinded to the treatment assignments and any previous scores. • 0 no reaction (negative) • 1 erythema throughout at least ¾ of patch area • 2 erythema and induration throughout at least ¾ of patch area • 3 erythema, induration and vesicles • 4 erythema, induration and bullae • D Site discontinued • Dc Subject discontinued • DcI Subject discontinued per Investigator

skin of human subjects [2] = conditions: repeat insult patch test; positive control
Text: To determine the irritation and sensitization (contact allergy) potential of a test material (high growth serum comprising ashwagandha exosomes/ELNs 1×10^9 or 1×10^10 after repeated application to the skin of human subjects. […]
This procedure was repeated until a series of nine (9) consecutive, 24-hour exposures had been made three (3) times a week for three (3) consecutive weeks. Prior to each reapplication, the test sites evaluated by trained laboratory personnel. […] Test sites were evaluated by trained laboratory personnel 48 and 96 hours after application. In the event of an adverse reaction, the area of erythema and edema were measured. […] Subjects were instructed to report any delayed reactions that might occur after the final reading. […]

CCCCCCCCCCCCOS(=O)(=O)[O-].[Na+] [2.0% Sodium Lauryl Sulfate Solution, Sodium Lauryl Sulfate]
subjects with a Grade 1 reaction (skin of human subjects [1]): 6 subjects | subjects with a Grade 1 reaction (skin of human subjects [2]): 6 subjects
